Test [1] in a line: Binding affinity to purified human sickle cell hemoglobin by SPR assay. In general terms: Surface plasmon resonance follows binding to a sensor surface in real time, without labels.
The nature of test [2]: Stabilization of purified human sickle cell hemoglobin at its oxygenated (R) state assessed as reduction in conversion from oxygenated (R, relaxed state) to deoxygenated (T, tense state) under deoxygenating conditions.

The structures appear in SMILES notation.

`C[C@H](Oc1cc2cc(F)cc(F)c2nc1N)c1ncc(F)cc1-n1cccn1` yielded a dissociation constant Kd in test [1] of 45 nM. The IC50 in test [2] stood at 3.62 µM.

In turn, `C[C@H](Oc1cc2cc(F)ccc2nc1N)c1nc(OCCO)ccc1-n1cccn1` yielded a Kd in test [1] of 44 nM. For the same molecule, in test [2], the IC50 was determined as 3.83 µM.

For `CC(=O)c1nc2[nH]ncc2cc1-n1cccn1`, in test [1], the dissociation constant (Kd) stood at 36 nM. Also, the IC50 in test [2] was found to be 3.76 µM.

Regarding `C[C@H](Oc1cc2cc(C(N)=O)cc(F)c2nc1N)c1ncc(F)cc1-n1cccn1`, in test [1], the Kd stood at 68 nM. Moreover, the IC50 in test [2] turned out to be 3.93 µM.

`C[C@H](Oc1cc2cc(F)ccc2nc1N)c1cc(OCC(=O)O)ccc1-n1cccn1`: in test [1], binding was characterised by a dissociation constant (Kd) of 63 nM. Further, in test [2], the 50% inhibitory concentration (IC50) was 3.89 µM.

Molecule `C[C@H](Oc1cc2cc(F)ccc2nc1N)c1cc(CCC(=O)O)ccc1-n1cccn1` displayed a dissociation constant Kd in test [1] of 188 nM. For the same molecule, the half-maximal inhibitory concentration (IC50) in test [2] was determined as 3.6 µM.

A word on the Kd: it is the free concentration of one partner at which half of the binding sites on the other are occupied at equilibrium, for simple one-to-one binding. The low end stands for a tighter complex, the high end for a looser complex. By IC50 is commonly meant the concentration that inhibits the measured activity by half.

(Values after ChEMBL document CHEMBL4725459, “Novel Pyrazoles as Hemoglobin Modulators for Treating Sickle Cell Disease” (ACS Med Chem Lett, 2020).)
